Test results published in patent US8383608B2, “Imidazolidine compounds as androgen receptor modulators” (Dart Therapeutics LLC, priority 2008, dated 2013).

Biological target: T1, human androgen receptor (hAR) (Homo sapiens, UniProt P10275)
T1 construct: expressed in transfected cells
T1 sequence (P10275 1-920): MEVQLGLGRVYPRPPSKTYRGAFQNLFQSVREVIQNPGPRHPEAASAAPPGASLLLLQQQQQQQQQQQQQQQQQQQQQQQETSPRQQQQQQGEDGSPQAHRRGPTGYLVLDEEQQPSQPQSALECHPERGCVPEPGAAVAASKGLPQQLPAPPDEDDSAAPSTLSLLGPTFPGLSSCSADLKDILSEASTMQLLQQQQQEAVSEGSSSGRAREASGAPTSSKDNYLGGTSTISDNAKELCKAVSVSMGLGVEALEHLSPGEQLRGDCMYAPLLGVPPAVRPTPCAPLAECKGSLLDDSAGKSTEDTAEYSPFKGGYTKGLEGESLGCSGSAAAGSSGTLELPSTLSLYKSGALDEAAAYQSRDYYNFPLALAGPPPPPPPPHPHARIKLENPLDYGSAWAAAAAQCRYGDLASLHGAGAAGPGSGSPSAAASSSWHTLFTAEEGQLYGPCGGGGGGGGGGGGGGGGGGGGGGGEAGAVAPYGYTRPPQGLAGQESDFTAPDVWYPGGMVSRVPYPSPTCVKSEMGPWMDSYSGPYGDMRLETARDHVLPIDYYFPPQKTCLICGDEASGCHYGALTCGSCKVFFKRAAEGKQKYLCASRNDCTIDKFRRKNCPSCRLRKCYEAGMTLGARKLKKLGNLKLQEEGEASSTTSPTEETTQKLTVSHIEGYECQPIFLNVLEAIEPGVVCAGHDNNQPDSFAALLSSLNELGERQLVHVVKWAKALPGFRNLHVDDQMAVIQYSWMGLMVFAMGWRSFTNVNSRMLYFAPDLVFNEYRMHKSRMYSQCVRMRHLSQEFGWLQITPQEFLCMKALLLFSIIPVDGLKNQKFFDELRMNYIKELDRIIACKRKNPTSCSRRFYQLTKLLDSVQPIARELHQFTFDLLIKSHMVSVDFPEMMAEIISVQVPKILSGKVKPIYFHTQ
Experiment: Functional response (transactivation) test in HALP2 cells (HeLa stably expressing hAR and ARE-luciferase reporter)
Format: cell-based
Settings: HALP2 cells; for Emax: HeLa, maximal activation by the compound compared with DHT alone (100%), read-out: % effect relative to DHT (100%); for EC50: agonism: concentration inducing 50% of the maximum agonistic effect of the tested compound, 24 hours, read-out: EC50

| Compound | Emax | EC50 |
| --- | --- | --- |
| CN1C(=O)N(c2ccc(C#N)c(C(F)(F)F)c2)C(=O)C1(CO)c1ccc(Cl)cc1 (stereo not drawn) [Example 7, 4-[4-(4-Chlorophenyl)-2,5-dioxo-4-hydroxymethyl-3-methyl-imidazolidin-1-yl)-2-trifluoromethylbenzonitrile] | 21 to 40% | 101 to 500 nM |
| CN1C(=O)N(c2ccc(C#N)c(C(F)(F)F)c2)C(=O)[C@@]1(CO)c1ccccc1 [Example 10, (S)-4-[2,5-Dioxo-4-(hydroxymethyl)-3-methyl-4-phenylimidazolidin-1-yl]-2-trifluoromethylbenzonitrile] | 21 to 40% | 11 to 100 nM |
| CCN1C(=O)N(c2ccc(C#N)c(C(F)(F)F)c2)C(=O)C1(CO)c1ccccc1 (stereo not drawn) [Example 12, 4-[2,5-Dioxo-3-ethyl-4-(hydroxymethyl)-4-phenylimidazolidin-1-yl]-2-trifluoromethylbenzonitrile] | 21 to 40% | 0.01 to 10 nM |
